This note sets out measurements from the NIST ThermoML archive (doi:10.1016/j.tca.2016.03.003).

A short description of data set [1]: Molar enthalpy of transition or fusion. The settings on record: DSC.
The conditions of data set [2]: DSC. A general note: DSC measures the heat that a sample takes up or gives off during a temperature scan.

± gives the expanded uncertainty stated by the source.

Regarding `CC(C)(C)CO` [2,2-dimethyl-1-propanol], the results for the “Molar enthalpy of transition or fusion” value in data set [1] (Crystal 1) and in data set [1] (Crystal 2) were 0.937 ± 0.115 kcal/mol and 0.992 ± 0.115 kcal/mol, respectively. The Triple point temperature in data set [2] (Crystal 1) is given as 329.2 ± 1.2 K; in data set [2] (Crystal 2), 237.5 ± 1.2 K.
On to `CC(C)(C)Cl` [2-chloro-2-methylpropane], for which the Triple point temperature in data set [2] (Crystal 1) was 244.4 ± 1.2 K; in data set [2] (Crystal 2), 219.5 ± 1.2 K; in data set [2] (Crystal 3), 217.7 ± 1.2 K; in data set [2] (Crystal 4), 184.8 ± 1.2 K.
With `ClC(Cl)(Cl)Cl` [tetrachloromethane], the results for the Triple point temperature in data set [2] (Crystal 1), in data set [2] (Crystal 2) and in data set [2] (Metastable crystal) were 250.4 ± 1.2 K, 226.1 ± 1.2 K and 245.2 ± 1.2 K, respectively.
